The text below walks through data of patent US7524956B2, “Hemisynthetic method and new compounds” (Pharma Mar, S.A., priority 1999, dated 2009).

The structures appear in SMILES notation.

Format in all cases: cell-based
Experiment [1] relates to P-388 (suspension culture of a lymphoid neoplasm from DBA/2 mouse). As to the kind of experiment: Cytotoxic activity screening, P-388 cells. Conditions: P388, 72 h, three days of incubation, approximate IC50. The method, then: (§1) Cell Cultures. Cells were maintained in logarithmic phase of growth in Eagle's Minimum Essential Medium, with Earle's Balanced Salts, with 2.0 mM L-glutamine, with non-essential amino acids, without sodium bicarbonate (EMEM/neaa); supplemented with 10% Fetal Calf Serum (FCS), 10^−2 M sodium bicarbonate and 0.1 g/l penicillin-G+streptomycin sulfate.
(§2) A simple screening procedure has been carried out to determine and compare the antitumour activity of these compounds, using an adapted form of the method described by Bergeron et al (1984). The tumour cell line employed have been P-388 (suspension culture of a lymphoid neoplasm from DBA/2 mouse), A-549 (monolayer culture of a human lung carcinoma), HT-29 (monolayer culture of a human colon carcinoma) and MEL-28 (monolayer culture of a human melanoma).
P-388 cell were seeded into 16 mm wells at 1×10^4 cells per well in 1 ml aliquots of MEM 5FCS containing the indicated concentration of drug. A separate set of cultures without drug was seeded as control growth to ensure that cells remained in exponential phase of growth. All determinations were carried out in duplicate.

The test system of experiment [2] is A-549 (monolayer culture of a human lung carcinoma). As to the kind of experiment: Cytotoxic activity screening, A-549 cells. To be noted: A549, 72 h, three days of incubation, Crystal Violet, approximate IC50. The method, then: as §1, §2
(§3) A-549, HT-29 and MEL-28 were seeded into 16 mm wells at 2×10^4 cells per well in 1 ml aliquots of MEM 10FCS containing the indicated concentration of drug. A separate set of cultures without drug was seeded as control growth to ensure that cells remained in exponential phase of growth. All determinations were carried out in duplicate. After three days of incubation at 37° C., 10% CO2 in a 98% humid atmosphere, the wells were stained with 0.1% Crystal Violet. An approximately IC50 was determined by comparing the growth in wells with drug to the growth in wells control.

For experiment [3], the system named is HT-29 (monolayer culture of a human colon carcinoma). As to the kind of experiment: Cytotoxic activity screening, HT-29 cells. Conditions: HT-29, 72 h, three days of incubation, Crystal Violet, approximate IC50. The protocol: as §1, §2, §3
Experiment [4] deals with MEL-28 (monolayer culture of a human melanoma). As to the kind of experiment: Cytotoxic activity screening, MEL-28 cells. Conditions: SK-MEL-28, 72 h, three days of incubation, Crystal Violet, approximate IC50. The protocol:
as §1, §2, §3

Experiment [5] concerns DU-145. As to the kind of experiment: Cytotoxic activity screening, DU-145 cells. To be noted: Homo sapiens, DU-145, DU-145 cells.

Broadly, the IC50 is the concentration that inhibits the measured activity by half. Consider `COc1c(C)cc2c(c1O)[C@@H]1C3Cc4c(OC(C)=O)c(C)c5c(c4[C@H](CNC(=O)/C=C/c4ccccc4)N3[C@@H](C#N)[C@H](C2)N1C)OCO5` (stereo partly drawn), for which the IC50 in experiment [1], in experiment [2], in experiment [3], in experiment [4] and in experiment [5] was 0.0001 µM throughout.
Regarding `CCCCCCCCCC(=O)NC[C@H]1c2c(c(OC(C)=O)c(C)c3c2OCO3)CC2[C@H]3c4c(cc(C)c(OC)c4O)C[C@@H]([C@H](C#N)N21)N3C` (stereo partly drawn), the IC50 in experiment [1], in experiment [2], in experiment [3], in experiment [4] and in experiment [5] was 0.007 µM throughout.
With `CCCC(=O)N[C@@H](C)C(=O)NC[C@H]1c2c(c(OC(C)=O)c(C)c3c2OCO3)CC2[C@H]3c4c(cc(C)c(OC)c4O)C[C@@H]([C@H](C#N)N21)N3C` (stereo partly drawn), the IC50 was found to be 0.001 µM in experiment [1]; 0.001 µM in experiment [2]; 0.0005 µM in experiment [3]; 0.0005 µM in experiment [4]; 0.001 µM in experiment [5].
